These results are taken from BindingDB's records for doi:10.1021/jm034206x (Boehringer Ingelheim (Canada), 2003).

The target of one assay is T1, Replication protein E1 (Human papillomavirus 11, UniProt P04014).
T1 sequence (P04014 whole entry): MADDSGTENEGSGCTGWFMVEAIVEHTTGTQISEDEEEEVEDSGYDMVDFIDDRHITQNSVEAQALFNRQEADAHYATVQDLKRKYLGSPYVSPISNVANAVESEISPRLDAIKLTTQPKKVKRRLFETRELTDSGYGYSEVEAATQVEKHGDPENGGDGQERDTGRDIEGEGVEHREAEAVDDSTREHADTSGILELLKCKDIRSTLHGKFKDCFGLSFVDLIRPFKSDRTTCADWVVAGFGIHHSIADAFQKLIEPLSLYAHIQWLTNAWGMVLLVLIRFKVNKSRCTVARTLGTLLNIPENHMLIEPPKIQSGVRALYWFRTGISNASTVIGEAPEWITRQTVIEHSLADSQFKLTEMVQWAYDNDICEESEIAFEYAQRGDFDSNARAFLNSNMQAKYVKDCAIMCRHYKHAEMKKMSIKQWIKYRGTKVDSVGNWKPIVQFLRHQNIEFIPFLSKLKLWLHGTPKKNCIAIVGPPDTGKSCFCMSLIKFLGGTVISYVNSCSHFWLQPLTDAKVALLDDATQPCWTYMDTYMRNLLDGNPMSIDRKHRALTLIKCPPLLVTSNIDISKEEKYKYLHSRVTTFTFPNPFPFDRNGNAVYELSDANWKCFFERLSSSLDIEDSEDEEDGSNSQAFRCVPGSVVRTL
As to the kind of experiment: ChEBML_84985. The source says:
Ability to inhibit in vitro ATPase activity of human papillomavirus (HPV6) E1 helicase
What is called IC50 is the midpoint of a concentration-inhibition curve. Lower therefore signals higher potency. Consider `O=C(O)CS(=O)(=O)c1ccc(-c2cccc(C(=O)NCc3cccc4ccccc34)c2)cc1` [{3'-[(Naphthalen-1-ylmethyl)-carbamoyl]-biphenyl-4-sulfonyl}-acetic acid], for which the IC50 was found to be 4.3 nM.

The target of a further assay is Replication protein E1 (Human papillomavirus type 6). As to the kind of experiment: Ability to inhibit in vitro ATPase activity of human papillomavirus (HPV6) E1 helicase.
Turning to `Cc1nc(-c2ccc(S(=O)(=O)CC(=O)O)cc2)cs1` [[4-(2-Methyl-thiazol-4-yl)-benzenesulfonyl]-acetic acid], 30000 nM corresponded to half-maximal inhibition (IC50). This counts as double-digit micromolar.

In turn, `O=C(O)CS(=O)(=O)c1ccc(-c2ccc3c(c2)OCO3)cc1` [(4-Benzo[1,3]dioxol-5-yl-benzenesulfonyl)-acetic acid] displayed an IC50 of 1300 nM.

`O=C(O)CS(=O)(=O)c1ccc(-c2ccc(C(=O)NCc3ccccc3)cc2)cc1` [(4'-Benzylcarbamoyl-biphenyl-4-sulfonyl)-acetic acid] had an IC50 of 510 nM.

`O=C(O)CS(=O)(=O)c1ccc(-c2ccc(C(=O)N3CCCCC3)cc2)cc1` [[4'-(Piperidine-1-carbonyl)-biphenyl-4-sulfonyl]-acetic acid]: the IC50 worked out at 3300 nM.

In turn, `CC(C(=O)O)S(=O)(=O)c1ccc(-c2ccccc2)cc1` (centres undefined) [2-(Biphenyl-4-sulfonyl)-propionic acid] returned an IC50 of 17000 nM.

`O=C(O)CS(=O)(=O)c1ccc(NCCc2ccccc2)cc1` [(4-Phenethylamino-benzenesulfonyl)-acetic acid] came in with an IC50 of 67000 nM.

`O=C(O)CS(=O)(=O)c1ccc(Sc2ccccc2)cc1` [(4-Phenylsulfanyl-benzenesulfonyl)-acetic acid]: the IC50 is above 80000 nM.

Take `Cc1cccc(CNC(=O)c2cccc(-c3ccc(S(=O)(=O)CC(=O)O)cc3)c2)c1` [[3'-(3-methyl-benzylcarbamoyl)-biphenyl-4-sulfonyl]-acetic acid]: the IC50 was 27 nM.

`O=C(O)CS(=O)(=O)c1ccc(-c2ccc(CC(=O)NCc3ccccc3)cc2)cc1` [(4'-Benzylcarbamoylmethyl-biphenyl-4-sulfonyl)-acetic acid] had an IC50 of 340 nM.

Turning to `O=C(O)CS(=O)(=O)c1ccc(-c2cccc(CC(=O)N[C@H]3CCc4ccccc43)c2)cc1` [[3'-((S)-Indan-1-ylcarbamoylmethyl)-biphenyl-4-sulfonyl]-acetic acid], the IC50 stood at 20 nM.

Regarding `COc1cccc(-c2ccc(S(=O)(=O)CC(=O)O)cc2)c1` [(3'-Methoxy-biphenyl-4-sulfonyl)-acetic acid], the IC50 was 4000 nM.

In turn, `O=C(O)CS(=O)(=O)c1ccc(-c2cccc(C(=O)N3CCOCC3)c2)cc1` [[3'-(Morpholine-4-carbonyl)-biphenyl-4-sulfonyl]-acetic acid] came in with an IC50 of 22000 nM. Against the preceding molecule, the IC50 is about 5.5-fold higher.

Regarding `CC(=O)NCCNC(=O)Cc1ccc(-c2ccc(S(=O)(=O)CC(=O)O)cc2)cc1` [{4'-[(2-Acetylamino-ethylcarbamoyl)-methyl]-biphenyl-4-sulfonyl}-acetic acid], the IC50 was 1900 nM.

On to `NC(=O)CS(=O)(=O)c1ccc(-c2ccccc2)cc1` [2-(Biphenyl-4-sulfonyl)-acetamide], for which the IC50 is above 80000 nM.

`O=S(=O)(O)CS(=O)(=O)c1ccc(-c2ccccc2)cc1` [(Biphenyl-4-sulfonyl)-methanesulfonic acid]: 32000 nM corresponded to half-maximal inhibition (IC50). That is a double-digit micromolar value.

On to `COc1ccc(-c2ccc(S(=O)(=O)CC(=O)O)cc2)cc1` [(4'-Methoxy-biphenyl-4-sulfonyl)-acetic acid], for which the IC50 amounted to 1300 nM.

`CN(C(=O)c1ccc(-c2ccc(S(=O)(=O)CC(=O)O)cc2)cc1)c1ccccc1` [[4'-(Methyl-phenyl-carbamoyl)-biphenyl-4-sulfonyl]-acetic acid] had an IC50 of 4800 nM.

Turning to `O=C(O)CS(=O)(=O)c1ccc(-c2cccc3ccccc23)cc1` [(4-Naphthalen-1-yl-benzenesulfonyl)-acetic acid], the IC50 is 5400 nM.

`C[C@@H](NC(=O)c1cccc(-c2ccc(S(=O)(=O)CC(=O)O)cc2)c1)c1ccccc1` [[3'-((R)-1-Phenyl-ethylcarbamoyl)-biphenyl-4-sulfonyl]-acetic acid] displayed an IC50 of 43 nM.

`O=C(O)CS(=O)(=O)c1ccc(-c2cccc(CC(=O)NCc3ccccc3)c2)cc1` [[3'-(Benzylcarbamoyl-methyl)-biphenyl-4-sulfonyl]-acetic acid] registered an IC50 of 300 nM.

In turn, `O=C(O)CS(=O)(=O)c1ccc2ccccc2c1` [(Naphthalene-2-sulfonyl)-acetic acid] gave an IC50 of 40000 nM.

Regarding `O=C(NCc1cccc2ccccc12)c1cccc(-c2ccc(C(=O)C(F)(F)P(=O)(O)O)cc2)c1` [(1,1-Difluoro-2-{3'-[(naphthalen-1-ylmethyl)-carbamoyl]-biphenyl-4-yl}-2-oxo-ethyl)-phosphonic acid], the IC50 was 740 nM.

`O=C(O)CS(=O)(=O)c1ccc(-c2ccc(CC(=O)Nc3ccccc3)cc2)cc1` [(4'-Phenylcarbamoylmethyl-biphenyl-4-sulfonyl)-acetic acid]: it took 160 nM to reach half-maximal inhibition (IC50).

For the molecule `O=C(O)CS(=O)(=O)c1cccc(-c2ccccc2)c1` [(Biphenyl-3-sulfonyl)-acetic acid], the IC50 was above 80000 nM.

Molecule `O=C(O)CS(=O)(=O)c1ccc(-c2cccc(C(=O)Nc3ccccc3)c2)cc1` [(3'-Phenylcarbamoyl-biphenyl-4-sulfonyl)-acetic acid] yielded an IC50 of 420 nM.

`O=C(O)CS(=O)(=O)c1ccc(-c2cccc(CC(=O)Nc3ccccc3)c2)cc1` [{3'-[(phenylcarbamoyl)-methyl]-biphenyl-4-sulfonyl}-acetic acid]: the half-maximal inhibitory concentration (IC50) was 110 nM.

`Cc1cccc(CNC(=O)c2cccc(-c3ccc(S(=O)(=O)CC(=O)O)cc3)c2)c1C` [[3'-(2,3-dimethyl-benzylcarbamoyl)-biphenyl-4-sulfonyl]-acetic acid]: it took 9.2 nM to reach half-maximal inhibition (IC50).

For the molecule `CC(C)(C(=O)O)S(=O)(=O)c1ccc(-c2ccccc2)cc1` [2-(Biphenyl-4-sulfonyl)-2-methyl-propionic acid], the IC50 was above 80000 nM.

In turn, `O=C(O)CS(=O)(=O)c1ccc(-c2nccs2)cc1` [(4-Thiazol-2-yl-benzenesulfonyl)-acetic acid] displayed an IC50 of 20000 nM. This counts as double-digit micromolar.

Molecule `O=C(O)CS(=O)(=O)c1ccc(-c2ccc(C(=O)N(Cc3ccccc3)Cc3ccccc3)cc2)cc1` [(4'-Dibenzylcarbamoyl-biphenyl-4-sulfonyl)-acetic acid] yielded an IC50 of 1100 nM.

In turn, `O=C(O)CS(=O)(=O)c1cccc(COc2ccccc2)c1` [(3-Phenoxymethyl-benzenesulfonyl)-acetic acid] registered an IC50 above 80000 nM.

In the case of `O=C(O)CS(=O)(=O)c1ccc(-c2ccc(C(=O)Nc3ccccc3)cc2)cc1` [(4'-Phenylcarbamoyl-biphenyl-4-sulfonyl)-acetic acid], half-maximal inhibition (IC50) required 1300 nM.

`CS(=O)(=O)c1ccc(-c2cccc(C(=O)NCc3cccc4ccccc34)c2)cc1` [4'-Methanesulfonyl-biphenyl-3-carboxylic acid (naphthalen-1-ylmethyl)-amide] had an IC50 above 80000 nM.

In the case of `CS(=O)(=O)c1ccc(-c2ccccc2)cc1` [4-Methanesulfonyl-biphenyl], the IC50 is above 80000 nM.

`C[C@H](NC(=O)c1cccc(-c2ccc(S(=O)(=O)CC(=O)O)cc2)c1)c1ccccc1` [[3'-(1-(S)-phenyl-ethylcarbamoyl)-biphenyl-4-sulfonyl]-acetic acid]: inhibition was half-maximal at 1700 nM (IC50).

The molecule `O=C(O)C(F)S(=O)(=O)c1ccc(-c2ccccc2)cc1` (centres undefined) [(Biphenyl-4-sulfonyl)-fluoro-acetic acid] came in with an IC50 of 6500 nM.

As for `O=C(O)CSc1ccc(-c2ccccc2)cc1` [(Biphenyl-4-sulfanyl)-acetic acid], the IC50 is above 80000 nM.

With `Cc1ccccc1CNC(=O)c1cccc(-c2ccc(S(=O)(=O)CC(=O)O)cc2)c1` [[3'-(2-methyl-benzylcarbamoyl)-biphenyl-4-sulfonyl]-acetic acid], inhibition was half-maximal at 32 nM (IC50).
